According to patent US6737383B1, “Herbicidal oxadiazolidines” (priority 1999, dated 2004):

How the values were obtained:
bedstraw = test: Test B pre/postemergence bedstraw; assay type: in vivo, Galium aparine; settings: Postemergence
Procedure, shortened: (§1)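 Test chemicals in a non-phytotoxic solvent mixture with surfactant were sprayed preemergence onto planted seeds and postemergence onto plants 2 to 18 cm tall (1- to 4-leaf stage). After twelve to sixteen days in a greenhouse, injury was visually rated against untreated controls from 0 (no effect) to 10 (complete control).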

blackgrass = test: Test B pre/postemergence blackgrass; assay type: in vivo, Alopecurus myosuroides
Procedure, shortened: as §1

surinam grass = test: Test B pre/postemergence surinam grass; assay type: in vivo, Brachiaria decumbens
Procedure, shortened: as §1

cocklebur = test: Test B pre/postemergence cocklebur; assay type: in vivo, Xanthium strumarium
Procedure, shortened: as §1

corn = test: Test B pre/postemergence corn; assay type: in vivo, Zea mays
Procedure, shortened: as §1

crabgrass = test: Test B pre/postemergence crabgrass; assay type: in vivo, Digitaria sanguinalis
Procedure, shortened: as §1

giant foxtail = test: Test B pre/postemergence giant foxtail; assay type: in vivo, Setaria faberii
Procedure, shortened: as §1

pigweed = test: Test B pre/postemergence pigweed; assay type: in vivo, Amaranthus retroflexus
Procedure, shortened: as §1

soybean = test: Test B pre/postemergence soybean; assay type: in vivo, Glycine max
Procedure, shortened: as §1

sugar beet = test: Test B pre/postemergence sugar beet; assay type: in vivo, Beta vulgaris
Procedure, shortened: as §1

velvetleaf = test: Test B pre/postemergence velvetleaf; assay type: in vivo, Abutilon theophrasti
Procedure, shortened: as §1

wild oat = test: Test B pre/postemergence wild oat; assay type: in vivo, Avena fatua
Procedure, shortened: as §1

purple nutsedge = test: Test B pre/postemergence purple nutsedge; assay type: in vivo, Cyperus rotundus
Procedure, shortened: as §1

rice = test: Test B flood test rice; assay type: in vivo, Oryza sativa
Procedure, shortened: (§2)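 Read-out is a visual response score from 0 (no effect) to 10 (complete control), assigned by comparison with untreated controls. Treatment was applied at the 2-leaf stage, and plants stayed in the greenhouse for twelve to sixteen days before scoring.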

smallflower flatsedge = test: Test B flood test smallflower flatsedge; assay type: in vivo, Cyperus difformis
Procedure, shortened: as §2

bamyardgrass = test: Test B flood test barnyardgrass; assay type: in vivo, Echinochloa crus-galli
Procedure, shortened: as §2

[1] = Postemergence, Rate 62 g/ha, scale 0 to 10, 0 is no effect, 10 is complete control
[2] = Postemergence, Rate 125 g/ha, scale of 0 to 10 where 0 is no effect and 10 is complete control
[3] = Postemergence, Rate 250 g/ha, scale of 0 to 10, 0 is no effect, 10 is complete control
[4] = Preemergence, Rate 62 g/ha, scale of 0 to 10 where 0 is no effect and 10 is complete control
[5] = Preemergence, Rate 125 g/ha, scale of 0 to 10 where 0 is no effect and 10 is complete control
[6] = Preemergence, Rate 250 g/ha, scale 0 to 10 (0 no effect, 10 complete control)
[7] = Preemergence, Rate 500 g/ha, scale of 0 to 10 where 0 is no effect and 10 is complete control
[8] = Rate 500 g/ha, Postemergence, scale 0 to 10, 0 is no effect, 10 is complete control
[9] = Rate 62 g/ha, flood test species, Pre-emergence, visual evaluation after twelve to sixteen days
[10] = Rate 125 g/ha, under heading Pre-emergence, flood test species, visual evaluation after twelve to sixteen days
[11] = Rate 250 g/ha, Pre-emergence (flood test species), scale 0 to 10, 0 is no effect, 10 is complete control
[12] = Rate 500 g/ha, Pre-emergence section of Table B, 0 to 10 scale (0 no effect, 10 complete control)

CC(C)N(C(=O)n1oc(=O)n(CC2CCCCO2)c1=O)c1ccc(Cl)cc1 (stereo not drawn) [Compound 660]
2: Cocklebur plant response rating (cocklebur; [3]) | Cocklebur plant response rating (cocklebur; [8]) | Corn plant response rating (corn; [8]) | Plant response rating, Redroot pigweed (pigweed; [1]) | Redroot pigweed plant response rating (pigweed; [2]) | Plant response rating, Soybean (soybean; [1]) | Velvetleaf plant response rating (velvetleaf; [2]) | Plant response rating, Wild oats (wild oat; [6])
4: Blackgrass plant response rating (blackgrass; [5]) | Plant response rating, B. signalgrass (surinam grass; [6]) | Plant response rating, B. signalgrass (surinam grass; [7]) | Crabgrass plant response rating (crabgrass; [4]) | Giant foxtail plant response rating (giant foxtail; [2])
8: Plant response rating, Crabgrass (crabgrass; [6]) | Giant foxtail plant response rating (giant foxtail; [4]) | Giant foxtail plant response rating (giant foxtail; [8])
1: B. signalgrass plant response rating (surinam grass; [5]) | Crabgrass plant response rating (crabgrass; [2])
5: B. signalgrass plant response rating (surinam grass; [8]) | Crabgrass plant response rating (crabgrass; [3]) | Giant foxtail plant response rating (giant foxtail; [3]) | Redroot pigweed plant response rating (pigweed; [5])
0: Plant response rating, Bedstraw (bedstraw; Rate 62 g/ha, scale 0 to 10, 0 is no effect, 10 is complete control) | Bedstraw plant response rating (bedstraw; Rate 125 g/ha, scale of 0 to 10 where 0 is no effect and 10 is complete control) | Bedstraw plant response rating (bedstraw; Rate 500 g/ha, scale 0 to 10, 0 is no effect, 10 is complete control) | Plant response rating, Blackgrass (blackgrass; [1]) | Blackgrass plant response rating (blackgrass; [2]) | Blackgrass plant response rating (blackgrass; [4]) | Plant response rating, B. signalgrass (surinam grass; [1]) | Plant response rating, B. signalgrass (surinam grass; [2]) | B. signalgrass plant response rating (surinam grass; [3]) | B. signalgrass plant response rating (surinam grass; [4]) | Plant response rating, Cocklebur (cocklebur; [1]) | Cocklebur plant response rating (cocklebur; [2]) | Cocklebur plant response rating (cocklebur; [4]) | Cocklebur plant response rating (cocklebur; [5]) | Plant response rating, Cocklebur (cocklebur; [6]) | Plant response rating, Cocklebur (cocklebur; [7]) | Plant response rating, Corn (corn; [1]) | Corn plant response rating (corn; [2]) | Corn plant response rating (corn; [3]) | Corn plant response rating (corn; [4]) | Corn plant response rating (corn; [5]) | Plant response rating, Corn (corn; [6]) | Plant response rating, Corn (corn; [7]) | Plant response rating, Crabgrass (crabgrass; [1]) | Redroot pigweed plant response rating (pigweed; [4]) | Soybean plant response rating (soybean; [4]) | Soybean plant response rating (soybean; [5]) | Plant response rating, Soybean (soybean; [6]) | Plant response rating, Soybean (soybean; [7]) | Plant response rating, Sugarbeets (sugar beet; [1]) | Sugarbeets plant response rating (sugar beet; [2]) | Sugarbeets plant response rating (sugar beet; [4]) | Sugarbeets plant response rating (sugar beet; [5]) | Plant response rating, Sugarbeets (sugar beet; [6]) | Plant response rating, Sugarbeets (sugar beet; [7]) | Sugarbeets plant response rating (sugar beet; [8]) | Plant response rating, Velvetleaf (velvetleaf; [1]) | Velvetleaf plant response rating (velvetleaf; [4]) | Velvetleaf plant response rating (velvetleaf; [5]) | Plant response rating, Velvetleaf (velvetleaf; [6]) | Plant response rating, Velvetleaf (velvetleaf; [7]) | Plant response rating, Wild oats (wild oat; [1]) | Wild oats plant response rating (wild oat; [2]) | Wild oats plant response rating (wild oat; [4]) | Wild oats plant response rating (wild oat; [5]) | Wild oats plant response rating (wild oat; [8]) | Plant response rating, Nutsedge (purple nutsedge; [1]) | Nutsedge plant response rating (purple nutsedge; [2]) | Nutsedge plant response rating (purple nutsedge; [4]) | Nutsedge plant response rating (purple nutsedge; [5]) | Plant response rating, Nutsedge (purple nutsedge; [6]) | Plant response rating, Nutsedge (purple nutsedge; [7]) | Nutsedge plant response rating (purple nutsedge; [8]) | Plant response rating, Rice (0 to 10 scale, 0 is no effect, 10 is complete control) (rice; [9]) | Rice plant response rating (0 to 10 scale, 0 is no effect, 10 is complete control) (rice; [10]) | Rice plant response rating (rice; [11]) | Rice plant response rating (rice; [12]) | Plant response rating, S. Flatsedge (0 to 10 scale, 0 is no effect, 10 is complete control) (smallflower flatsedge; [9]) | S. Flatsedge plant response rating (0 to 10 scale, 0 is no effect, 10 is complete control) (smallflower flatsedge; [10]) | S. Flatsedge plant response rating (smallflower flatsedge; [11]) | S. Flatsedge plant response rating (smallflower flatsedge; [12]) | Plant response rating, Barnyardgrass (0 to 10 scale, 0 is no effect, 10 is complete control) (bamyardgrass; [9]) | Barnyardgrass plant response rating (0 to 10 scale, 0 is no effect, 10 is complete control) (bamyardgrass; [10]) | Barnyardgrass plant response rating (bamyardgrass; [11]) | Barnyardgrass plant response rating (bamyardgrass; [12])
9: Plant response rating, Crabgrass (crabgrass; [7])
10: Giant foxtail plant response rating (giant foxtail; [5]) | Plant response rating, Giant foxtail (giant foxtail; [6]) | Plant response rating, Giant foxtail (giant foxtail; [7]) | Plant response rating, Redroot pigweed (pigweed; [7])
6: Plant response rating, Blackgrass (blackgrass; [6]) | Blackgrass plant response rating (blackgrass; [8]) | Redroot pigweed plant response rating (pigweed; [8]) | Soybean plant response rating (soybean; [8])
7: Plant response rating, Blackgrass (blackgrass; [7]) | Crabgrass plant response rating (crabgrass; [5]) | Crabgrass plant response rating (crabgrass; [8]) | Plant response rating, Redroot pigweed (pigweed; [6])
3: Blackgrass plant response rating (blackgrass; [3]) | Plant response rating, Giant foxtail (giant foxtail; [1]) | Soybean plant response rating (soybean; [2]) | Velvetleaf plant response rating (velvetleaf; [8]) | Plant response rating, Wild oats (wild oat; [7])
